Measured values as given in patent US7786083B2, “Metastin derivatives and use thereof” (Takeda Pharmaceutical Company Limited, priority 2006, dated 2010).
*1 amine or outer side, *2 acyl side, *3 side chain or, on linkers, in order; H or OH if unused. Where a SMILES comes first, the peptide text is derived from it. [ ]: non-standard residue; d: D form. Glyψ(E-CHCH)Leu = CC(C)C[C@H](/C=C/CN[*:1])C(=O)[*:2]; Arg(Me) = CNC(=N)NCCC[C@H](N)C(=O)O; Dap(CONH2) = NC(=O)NC[C@H](N)C(=O)O; Ala(cPr) = N[C@@H](CC1CC1)C(=O)O; Hyp = O=C(O)[C@@H]1C[C@@H](O)CN1; Aad = N[C@@H](CCCC(=O)O)C(=O)O; Cha = N[C@@H](CC1CCCCC1)C(=O)O; Aib = CC(C)(N)C(=O)O

These compounds were tested on metastin receptors (assay: Measurement of agonist activity by assaying changes in intracellular calcium ion level (FLIPR, Fluo-4 NW)). Details: specific activity of the EC50 of a test compound based on the EC50 of Metastin (45-54), metastin receptor expression CHO cells.
Assay type: cell-based, human
Outline: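 CHO/dhfr⁻ cells stably expressing human or rat metastin receptor, seeded 3×10^4/well for 24 h, loaded with Fluo-4 NW 30 min at 37 °C in HBSS with 0.1% BSA, 20 mM HEPES pH 7.4 and 1 mM probenecid. Compound-stimulated intracellular calcium change read on FLIPR.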

Structure (SMILES)	Specific Activity
CNC(=N)NCCC[C@H](NC(=O)[C@@H](/C=C/CNC(=O)[C@H](Cc1ccccc1)NC(=O)[C@@H](NC(=O)[C@H](CC(N)=O)NC(=O)[C@H](CCC(=O)O)NC(=O)[C@@H](Cc1ccc(O)cc1)NC(C)=O)[C@@H](C)O)CC(C)C)C(=O)N[C@@H](Cc1c[nH]c2ccccc12)C(N)=O [Compound No. 907, des(1)-Ac-[D-Tyr2,Glu3,Thr5,Gly7Ψ((E)CH═CH)Leu8,Arg(Me)9,Trp10]MS10] (Ac-[dY]ENTF[Glyψ(E-CHCH)Leu][Arg(Me)]W-NH2)	0.6
CNC(=N)NCCC[C@H](NC(=O)[C@@H](/C=C/CNC(=O)[C@H](Cc1ccccc1)NC(=O)[C@@H](NC(=O)[C@H](CNC(N)=O)NC(=O)[C@H](CCC(=O)O)NC(=O)[C@@H](Cc1ccc(O)cc1)NC(C)=O)[C@@H](C)O)CC(C)C)C(=O)N[C@@H](Cc1c[nH]c2ccccc12)C(N)=O [Compound No. 908, des(1)-Ac-[D-Tyr2,Glu3,Alb4,Thr5,Gly7Ψ((E)CH═CH)Leu8,Arg(Me)9,Trp10]MS10] (Ac-[dY]E[Dap(CONH2)]TF[Glyψ(E-CHCH)Leu][Arg(Me)]W-NH2)	0.5
CNC(=N)NCCC[C@H](NC(=O)[C@H](CC1CC1)NC(=O)CNC(=O)[C@H](CC1CCCCC1)NC(=O)[C@@H](NC(=O)[C@H](CC(N)=O)NC(=O)[C@H](CC(=O)O)NC(=O)[C@@H](Cc1ccc(O)cc1)NC(C)=O)[C@@H](C)O)C(=O)N[C@@H](Cc1c[nH]c2ccccc12)C(N)=O [Compound No. 909, des(1)-Ac-[D-Tyr2,Asp3,Thr5,Cha6,Ala(cPr)8,Arg(Me)9,Trp10]MS10] (Ac-[dY]DNT[Cha]G[Ala(cPr)][Arg(Me)]W-NH2)	2.5
CNC(=N)NCCC[C@H](NC(=O)[C@H](CC1CC1)NC(=O)CNC(=O)[C@H](CC1CCCCC1)NC(=O)[C@@H](NC(=O)[C@H](CC(N)=O)NC(=O)[C@H](CCCC(=O)O)NC(=O)[C@@H](Cc1ccc(O)cc1)NC(C)=O)[C@@H](C)O)C(=O)N[C@@H](Cc1c[nH]c2ccccc12)C(N)=O [Compound No. 910, des(1)-Ac-[D-Tyr2,Aad3,Thr5,Cha6,Ala(cPr)8,Arg(Me)9,Trp10]MS10] (Ac-[dY][Aad]NT[Cha]G[Ala(cPr)][Arg(Me)]W-NH2)	1.1

Other lines, results leading:

Specific Activity	Structure (SMILES)
0.7	CNC(=N)NCCC[C@H](NC(=O)[C@H](CC1CC1)NC(=O)CNC(=O)[C@H](CC1CCCCC1)NC(=O)[C@@H](NC(=O)[C@H](CC(N)=O)NC(=O)[C@H](CCCCN)NC(=O)[C@@H](Cc1ccc(O)cc1)NC(C)=O)[C@@H](C)O)C(=O)N[C@@H](Cc1c[nH]c2ccccc12)C(N)=O [Compound No. 911, des(1)-Ac-[D-Tyr2,Lys3,Thr5,Cha6,Ala(cPr)8,Arg(Me)9,Trp10]MS10] (Ac-[dY]KNT[Cha]G[Ala(cPr)][Arg(Me)]W-NH2)
0.6	CNC(=N)NCCC[C@H](NC(=O)[C@H](CC1CC1)NC(=O)CNC(=O)[C@H](CC1CCCCC1)NC(=O)[C@@H](NC(=O)[C@H](CC(N)=O)NC(=O)C(C)(C)NC(=O)[C@@H](Cc1ccc(O)cc1)NC(C)=O)[C@@H](C)O)C(=O)N[C@@H](Cc1c[nH]c2ccccc12)C(N)=O [Compound No. 912, des(1)-Ac-[D-Tyr2,Aib3,Thr5,Cha6,Ala(cPr)8,Arg(Me)9,Trp10]MS10] (Ac-[dY][Aib]NT[Cha]G[Ala(cPr)][Arg(Me)]W-NH2)
1.4	CNC(=N)NCCC[C@H](NC(=O)[C@@H](/C=C/CNC(=O)[C@H](CC1CCCCC1)NC(=O)[C@@H](NC(=O)[C@H](CCC(N)=O)NC(=O)[C@@H]1C[C@@H](O)CN1C(=O)[C@@H](Cc1ccc(O)cc1)NC(C)=O)[C@@H](C)O)CC(C)C)C(=O)N[C@@H](Cc1c[nH]c2ccccc12)C(N)=O [Compound No. 913, des(1)-Ac-[D-Tyr2,Hyp3,Gln4,Thr5,Cha6,Gly7Ψ((E)CH═CH)Leu8,Arg(Me)9,Trp10]MS10] (Ac-[dY][Hyp]QT[Cha][Glyψ(E-CHCH)Leu][Arg(Me)]W-NH2)
